Measured values reported in patent US11484543B2, “Compositions and methods for diagnosing and treating diseases and disorders associated with mutant KCNJ5” (The Rockefeller University, priority 2017, dated 2022).
Numbering of substitutions follows the chain as printed. Structures can show the parent of a compound that is named as a salt. Where two headings read alike, the source gives them in different places.

What was measured:
Format in all cases: cell-based
[1] = target: T1, KCNJ5^G151R (Homo sapiens, UniProt P48544, G151R); assay: cell-based; details: for inhibition of KCNJ5^MUT (structure-activity statement): macrolide series, dilution curves; for dose response on KCNJ5^G151R: tested at 1.1, 3.3 and 10 μM
T1 construct: expressed in transfected cells
T1 sequence (P48544 1-419 G151R): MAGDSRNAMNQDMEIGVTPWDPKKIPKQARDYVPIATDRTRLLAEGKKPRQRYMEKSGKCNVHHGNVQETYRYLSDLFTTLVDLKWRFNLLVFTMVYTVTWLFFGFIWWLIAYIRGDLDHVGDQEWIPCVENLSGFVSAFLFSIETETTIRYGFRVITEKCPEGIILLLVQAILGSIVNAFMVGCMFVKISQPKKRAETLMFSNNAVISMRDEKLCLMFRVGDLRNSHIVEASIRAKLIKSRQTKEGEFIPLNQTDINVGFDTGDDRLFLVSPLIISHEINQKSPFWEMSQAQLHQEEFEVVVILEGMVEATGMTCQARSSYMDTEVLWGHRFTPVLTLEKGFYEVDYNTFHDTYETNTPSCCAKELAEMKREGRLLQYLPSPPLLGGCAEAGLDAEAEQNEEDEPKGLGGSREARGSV
Protocol: (§1) WT or mutant human KCNJ5 cDNAs (Choi et al., 2011, Science 331:768-772) were subcloned into the pcDNA5/FRT/TO vector using BamHI and HindIII. Single copies of WT or mutant human KCNJ5 cDNAs expressed under the control of tetracycline-inducible promoter were introduced into HEK293 cells using the Flp-in T-Rex System (Invitrogen) according to the manufacturer's instructions. Cells were grown in selective media containing 10% Tet-system approved FBS (Clontech) until induction.
(§2) Assay plates were centrifuged and incubated overnight at 37° C. 20 nL was transferred from the compound source plate to the cell assay plate using an Aquarius (Tecan) with a 384-well pin tool (V&P Scientific). The final concentration of compound for screening was 10 μM and the final DMSO concentration was 0.1%. 1 μL of tetracycline (final concentration 1 μg/mL) was added to compound containing and negative control wells by Multidrop Combi to induce expression. 1 μL of media was added to positive control wells. Assay plates were centrifuged and incubated for 72 hours at 37° C., 5% CO2. CellTiter-Glo (Promega) was used to measure cell viability in the assay wells according to the manufacturer's instructions. 10 μL/well of CellTiter-Glo reagent was added to the assay plates using a MultiDrop Combi. The plates were shaken on a Thermomixer R (Eppendorf) at 1100 rpm for 1 minute and incubated in the dark for 10 minutes at room temperature. Luminescence was read on an Envision plate reader (PerkinElmer) with 0.3 second sampling time per well. Raw data (luminescence counts per second) was normalized to percent effect by the formula 100−(((sample−negative control mean)/(positive control mean−negative control mean))*100).
(§3) Data was analyzed using the programs Excel (Microsoft) and Prism (GraphPad). Errors are SD unless otherwise indicated in the legend. Dose-response curves were fitted with a four-parameter logistic equation: F(x)=D+(A−D)/(1+(x/C)^B), with A=minimum inhibition B=Hill's slope C=inflection point D=maximum inhibition Synthesis of Macrolide Derivatives
(§4) Cellular ATP levels were measured as a proxy for cell viability, using a commercially available luciferase assay (Crouch et al., 1993, Proc. Natl. Acad. Sci. U.S.A. 109:2533-2538).
(§5) Conditions were designed to maximize reproducibility and the signal-to-background ratios (S/B) (Zhang et al., 1999, J. Biomol. Screen 4:67-73) comparing ATP level in uninduced and induced cells. Screening was performed in 384-well plates; compounds were added 24 hours after plating, and channel expression was induced immediately after compound addition. ATP levels were measured 72 hours after induction.
Levels of ATP in uninduced and induced cells without added test compound defined 100% and 0% effect, respectively, and served as a proxy for lethality.

[2] = target: T2, KCNJ5^L168R (Homo sapiens, UniProt P48544, L168R); assay: Cell viability assay (ATP, CellTiter-Glo): rescue of KCNJ5^L168R-induced lethality in inducible HEK293 cells; details: for L168R IC50 / IC50 / L168R maximum inhibition / L168R minimum inhibition: 10-point dilution 20 to 0.0391 μM, N=3, four-parameter fit; for dose response on KCNJ5^L168R: tested at 1.1, 3.3 and 10 μM
T2 construct: expressed in transfected cells
T2 sequence (P48544 1-419 L168R): T1 sequence (P48544 1-419 G151R) with R151G, L168R
Protocol: as §1, §2, §3, §4, §5

[3] = target: T3, KCNJ5^WT (Homo sapiens, UniProt P48544); assay: Membrane potential assay (FLIPR dye) in inducible KCNJ5^WT HEK293 cells; details: 10-point dilution 20 to 0.0391 μM, N=3, four-parameter fit
T3 construct: expressed in transfected cells
T3 sequence (P48544 1-419): T1 sequence (P48544 1-419 G151R) with R151G
Protocol: as §1, with “Single” for “WT or mutant human KCNJ5 cDNAs (Choi et al., 2011, Science 331:768-772) were subcloned into the pcDNA5/FRT/TO vector using BamHI and HindIII. Single”
20 μL of WT cells were plated into sterile black with clear bottom tissue culture-treated 384-well plates (Corning) at a density of 10000 cells/well using a Multidrop Combi. Assay plates were centrifuged at 500 rpm for 10 seconds and incubated overnight at 37° C. in a humidified 5% CO2 incubator. After the overnight incubation, 1 μL of tetracycline (final conc. 1 μg/mL) was added to all wells by Multidrop Combi to induce KCNJ5. Assay plates were centrifuged at 500 rpm for 10 seconds and incubated overnight at 37° C. in a humidified 5% CO2 incubator. The next day, 10 μL of medium was removed from each well using a PlateMate Plus (Thermo Scientific). 10 μL of Blue Formula FLIPR membrane potential dye (Molecular Devices) was added to cells using a Multichannel pipettor. Assay plates were incubated for 30 minutes. at 37° C. After incubation, 20 nL was transferred twice from the compound source plate to the cell assay plate using an Aquarius with a 384-well pin tool for a total transfer volume of 40 nL and a final DMSO concentration of 0.2%. 1 μL of 20 mM BaCl2 was added to positive control wells using a Multichannel pipettor. The assay plate was incubated 20 minutes at room temperature in the dark.
Changes in membrane potential were detected using a well-established fluorescence-based measure of membrane potential (FIG. 4).

[4] = 10-point dilution 20 to 0.0391 μM, N=3, four-parameter fit
[5] = 10 μM, ATP level 72 h after induction, uninduced = 100%, induced = 0% effect, first of the two runs (primary screen / hit pick)
[6] = 10 μM, ATP level 72 h after induction, uninduced = 100%, induced = 0% effect, second of the two runs (primary screen / hit pick, confirmatory testing)
[7] = 10 μM, mean of primary screen and hit pick
[8] = HEK293, 72 h, 10 μM, mean of primary screen and hit pick, read-out: mean % effect
[9] = HEK293, 10 μM, ATP level 72 h after induction, uninduced = 100%, induced = 0% effect, first of the two runs (primary screen / hit pick), read-out: % effect (1)
[10] = HEK293, 10 μM, ATP level 72 h after induction, uninduced = 100%, induced = 0% effect, second of the two runs (primary screen / hit pick, confirmatory testing), read-out: % effect (2)

For CC[C@H]1OC(=O)[C@H](C)[C@@H](O[C@H]2C[C@@](C)(OC)[C@@H](O)[C@H](C)O2)[C@H](C)[C@@H](O[C@@H]2O[C@H](C)C[C@H](N(C)C)[C@H]2O)[C@](C)(O)C[C@](C)(F)C(=O)[C@H](C)[C@@H](O)[C@]1(C)O [Flurithromycin, flurithromycin], the “G151R IC50” value [1, 4] was “No fit”, the “inhibition of KCNJ5^MUT (structure-activity statement)” value [1] was “negligible activity” and the “L168R IC50” value [2] was “No fit”. For the same compound, the “WT IC50” value [3] was “No fit”.

CC[C@H]1OC(=O)[C@H](C)[C@@H](O[C@H]2C[C@@](C)(OC)[C@@H](O)[C@H](C)O2)[C@H](C)[C@@H](O[C@@H]2O[C@H](C)C[C@H](N(C)C)[C@H]2O)[C@](C)(O)C[C@@H](C)C(=NO)[C@H](C)[C@@H](O)[C@]1(C)O [Erythromycin A Oxime, erythromycin A oxime] was tested, and the G151R maximum inhibition [1, 4] was 84.11%, the G151R minimum inhibition [1, 4] was 2.49% and the IC50 [1, 4] was 2880 nM. It also gave an IC50 [2] of 8130 nM, an L168R maximum inhibition [2] of 60.00% and an L168R minimum inhibition [2] of 0.65%. The “dose response on KCNJ5^L168R” value [2] was “showed a dose response” and the “WT IC50” value [3] was “No fit”.

With C1CCC(N=C(NC23CC4CC(CC(C4)C2)C3)N2CCOCC2)CC1.Cl [YU224116, U-37883A-HCl] the “% effect (1)” value [1, 5] was 49.9%, the “% effect (2)” value [1, 6] was 65.8% and the mean % effect [1, 7] was 57.9%. For the same compound, the “dose response on KCNJ5^G151R” value [1] was “potent inhibitors” and the “dose response on KCNJ5^L168R” value [2] was “either high IC50 values or low maximum inhibition”.

CC[C@H]1OC(=O)[C@H](C)[C@@H](O[C@H]2C[C@@](C)(OC)[C@@H](O)[C@H](C)O2)[C@H](C)[C@@H](O[C@@H]2O[C@H](C)C[C@H](N(C)C)[C@H]2O)[C@](C)(OC)C[C@@H](C)C(=O)[C@H](C)[C@@H](O)[C@]1(C)O [Clarithromycin, clarithromycin] showed a G151R maximum inhibition [1, 4] of 83.09%, a G151R minimum inhibition [1, 4] of 6.40% and an IC50 [1, 4] of 710 nM. For the same compound, the “inhibition of KCNJ5^MUT (structure-activity statement)” value [1] was “potent effects”, the IC50 [2] was 1720 nM and the L168R maximum inhibition [2] was 55.70%. The L168R minimum inhibition [2] was 2.35%, the “dose response on KCNJ5^L168R” value [2] was “showed a dose response” and the “WT IC50” value [3] was “No fit”.

In the case of CC[C@H]1OC(=O)[C@H](C)[C@@H](O[C@H]2C[C@@](C)(OC)[C@@H](O)[C@H](C)O2)[C@H](C)[C@@H](O[C@@H]2O[C@H](C)C[C@H](N(C)C)[C@H]2O)[C@](C)(O)C[C@@H](C)[C@@H]2N[C@@H](COCCOC)O[C@H]([C@H]2C)[C@]1(C)O [Dirithromycin, dirithromycin], the G151R maximum inhibition [1, 4] is reported as 18.29%, the G151R minimum inhibition [1, 4] is reported as 1.31% and the IC50 [1, 4] is reported as 15800 nM. For the same compound, the “L168R IC50” value [2] was “No fit” and the “WT IC50” value [3] was “No fit”.

COC(=O)c1c(NC(=O)c2ccc(S(=O)(=O)N3CCC(C)CC3)cc2)sc2c1CCN(C)C2 [YU207147] was tested, and the “% effect (1)” value [1, 5] was 35.0%, the “% effect (2)” value [1, 6] was 50.5% and the mean % effect [1, 7] was 42.8%.

For CCN1CCN(Cc2c(O)ccc3oc(C)c(C(=O)Nc4cccc(C(F)(F)F)c4)c23)CC1 [YU164400], the “% effect (1)” value [1, 5] was 41.7%, the “% effect (2)” value [1, 6] was 52.7% and the mean % effect [1, 7] was 47.2%.

In the case of CN1CCN(CCCN2c3ccccc3Sc3ccc(C(F)(F)F)cc32)CC1 [YU225091, Trifluoperazine HCl], the viability at 10 µM [1, 8] is reported as 38.7%, the viability at 10 µM [1, 9] is reported as 41.9% and the viability at 10 µM [1, 10] is reported as 35.6%.

CCN(CC)CCN1c2ccccc2Sc2ccc3ccccc3c21 [NSC18883] was tested, and the “dose response on KCNJ5^G151R” value [1] was “potent inhibitors” and the “dose response on KCNJ5^L168R” value [2] was “either high IC50 values or low maximum inhibition”.

Work on C[C@]12CC[C@@H]3c4ccc(O)cc4C[C@@H](CCCCCCCCC[S+]([O-])CCCC(F)(F)C(F)(F)F)[C@H]3[C@@H]1CC[C@@H]2O (stereo partly shown) [YU221408, Fulvestrant] yielded a viability at 10 µM [1, 8] of 52.3%, a viability at 10 µM [1, 9] of 65% and a viability at 10 µM [1, 10] of 39.6%.

CC(C)COCC(CN(Cc1ccccc1)c1ccccc1)N1CCCC1 (stereo not shown) [YU224969, Bepridil HCl] was tested, and the viability at 10 µM [1, 8] was 38.7%, the viability at 10 µM [1, 9] was 33.4% and the viability at 10 µM [1, 10] was 43.9%.

With CC(=O)N(C)c1c(I)cc(I)c(OC(C)C(=O)O)c1I (stereo not shown) [YU155938] the “% effect (1)” value [1, 5] was 83.4%, the “% effect (2)” value [1, 6] was 47.9% and the mean % effect [1, 7] was 65.7%.

With Cc1oc2ccc(O)c(CN3CCCC(C)C3)c2c1C(=O)Nc1ccccc1 (stereo not shown) [YU164352] the “% effect (1)” value [1, 5] was 55.1%, the “% effect (2)” value [1, 6] was 52.4% and the mean % effect [1, 7] was 53.7%.

With spiramycin the “activity against KCNJ5^G151R in the primary screen” value ([1]; primary screen, 10 μM) was “little or no activity”.

For COc1cc(-c2ccc(NC(=O)NC3CC3)c(OC)c2)ccc1NC(=O)NC1CC1 [YU223483], the “% effect (1)” value [1, 5] was 48.0%, the “% effect (2)” value [1, 6] was 68.3% and the mean % effect [1, 7] was 58.1%.
